In patent US11267814B2, “Compounds for bone growth” (OsteoQC Inc., priority 2013, dated 2022):

Tests used:
sclerostin = target: T1, sclerostin (Homo sapiens, UniProt Q9BQB4); assay: Modulation of sclerostin/Wnt activity (sclerostin inhibition assay): restoring Wnt3a signaling in the presence of sclerostin; type: cell-based; details: IC100 class; Wnt3a signaling in human embryonic cells in presence of sclerostin
T1 construct: host or cells: human embryonic cells (reporter cells)
T1 sequence (Q9BQB4 24-213): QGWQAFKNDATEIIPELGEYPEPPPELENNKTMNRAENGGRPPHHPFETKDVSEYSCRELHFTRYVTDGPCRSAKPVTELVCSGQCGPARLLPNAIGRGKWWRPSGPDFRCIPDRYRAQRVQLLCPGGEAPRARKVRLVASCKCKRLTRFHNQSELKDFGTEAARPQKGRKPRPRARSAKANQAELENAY

hERG potassium channel = target: T2, hERG potassium channel (Homo sapiens, UniProt Q12809); assay: hERG automated patch clamp assay; type: cell-based; details: inhibition of hERG tail current, 5 minutes at room temperature, CHO-K1 cells stably expressing hERG
T2 construct: expressed in transfected cells; host or cells: CHO-K1
T2 sequence (Q12809 whole entry): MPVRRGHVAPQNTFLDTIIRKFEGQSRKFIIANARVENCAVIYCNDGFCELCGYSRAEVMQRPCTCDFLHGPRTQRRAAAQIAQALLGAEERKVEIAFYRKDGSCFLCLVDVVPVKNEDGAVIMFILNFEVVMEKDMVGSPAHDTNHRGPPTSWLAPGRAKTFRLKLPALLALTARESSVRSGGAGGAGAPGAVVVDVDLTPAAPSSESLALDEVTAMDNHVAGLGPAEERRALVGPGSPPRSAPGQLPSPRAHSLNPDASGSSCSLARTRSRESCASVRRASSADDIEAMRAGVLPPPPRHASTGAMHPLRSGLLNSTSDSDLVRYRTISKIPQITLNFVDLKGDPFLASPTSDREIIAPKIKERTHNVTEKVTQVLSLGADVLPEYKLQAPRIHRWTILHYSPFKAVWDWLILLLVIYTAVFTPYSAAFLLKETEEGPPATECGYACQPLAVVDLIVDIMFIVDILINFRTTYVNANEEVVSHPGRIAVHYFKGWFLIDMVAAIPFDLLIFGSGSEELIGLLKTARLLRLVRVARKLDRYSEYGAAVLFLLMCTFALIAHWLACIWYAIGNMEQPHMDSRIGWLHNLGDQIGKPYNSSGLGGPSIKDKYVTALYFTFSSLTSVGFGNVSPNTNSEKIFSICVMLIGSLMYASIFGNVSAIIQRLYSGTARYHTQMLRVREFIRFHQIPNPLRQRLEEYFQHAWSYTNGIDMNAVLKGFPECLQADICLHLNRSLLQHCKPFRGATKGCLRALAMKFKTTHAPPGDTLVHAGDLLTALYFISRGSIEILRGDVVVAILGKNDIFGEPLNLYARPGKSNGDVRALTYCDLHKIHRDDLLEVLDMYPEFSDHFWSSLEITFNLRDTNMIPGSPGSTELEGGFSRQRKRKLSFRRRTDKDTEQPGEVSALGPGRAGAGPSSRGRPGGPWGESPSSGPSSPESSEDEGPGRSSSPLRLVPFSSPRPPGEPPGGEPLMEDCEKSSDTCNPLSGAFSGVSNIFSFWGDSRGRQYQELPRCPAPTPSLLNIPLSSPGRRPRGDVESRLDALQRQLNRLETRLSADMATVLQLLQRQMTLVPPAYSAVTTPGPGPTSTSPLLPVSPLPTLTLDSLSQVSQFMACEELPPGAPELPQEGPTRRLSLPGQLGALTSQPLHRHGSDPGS
Experimental: One major type of cardiovascular toxicity associated with pharmaceutical drugs is caused by drug effects on cardiac ion channels like hERG. Drug-induced inhibition of hERG results in a prolonged QT interval, which can lead to a life-threatening ventricular arrhythmia. Therefore, the inhibitory effect of compounds described in Examples 1-46 on the hERG potassium channel was evaluated using an automated patch clamp assay as described in Mathes, C. (2006) Expert Opin. Ther. Targets, 10 (2): 319-327. CHO-K1 cells stably expressing hERG channels were used.

MC3T3 osteoblast cells = assay: Osteocalcin (OCN) secretion, bone formation marker, ELISA; type: cell-based, mouse; details: Mus musculus; IC100 class; OCN secreted from MC3T3 osteoblast cells treated with sclerostin
Experimental: Bone formation can also be assayed in vitro or in vivo using a serum marker for bone formation, osteocalcin (OCN), available from Biomedical Tecnhnologies, Inc. (Stoughton, Mass.). Following the manufacturer's protocol for the mouse osteocalcin EIA kit (described at the website www.btiinc.com/page/cata2.html#mouse_osteocalcin), bone formation in MC3T3 osteoblast cells was assayed by measuring the concentration of OCN.

[1] = system: MC3T3-E1 (mouse calvarial) osteoblast cells; assay: Rescue of sclerostin inhibition of mineralization (total calcium); type: cell-based; details: Mus musculus, MC3T3-E1; IC100 class; calcium concentration, MC3T3 osteoblast cells treated with sclerostin; read-out: Sclerostin Inhibition of Mineralization; improvement over sclerostin alone.
Experimental: Mineralization (crystalline calcium phosphate formation) represents an in vitro model of bone formation. […] Following the protocol described in Li et al., Compounds were assayed for their ability to rescue the inhibition of mineralization by sclerostin in MC3T3 osteoblast cells.

In the case of `COc1ccc2c3ccnc(C)c3n(CCCN3CCN(C(=O)OC(C)(C)C)CC3)c2c1` [Example 15, t-butyl 4-(3-(7-methoxy-1-methyl-9H-pyrido[3,4-b]indol-9-yl)propyl) piperazine-1-carboxylate], the “Sclerostin Inhibition Assay; improvement over sclerostin alone.” value (sclerostin) is reported as “++ (++ indicates an IC100 < 10 μM)”, the “hERG (1uM)” value (hERG potassium channel) is reported as “++ (++ indicates more than 50% inhibition of hERG tail current)” and the IC100 (MC3T3 osteoblast cells) is reported as under 10 µM. It also gave an IC100 [1] of under 10 µM.
